Reference: US9347013B2, “Natural oil derivative based thickener components used in grease compositions and processes for making such compositions” (Elevance Renewable Sciences, Inc., priority 2014, dated 2016)

Columns and labels:
[1] = Log P (oil solubility) of grease complexing agents; details: more oil soluble than azelaic acid

Row | logP (physchem) | oil solubility relative to azelaic acid [1] | SMILES
1 | 2.01 | – | O=C(O)CCCCCCCC(=O)O [Azelaic (C9), azelaic acid, reference compound]
2 | 3 | about 1.5 times | O=C(O)CCCCCCCCCCCCCCCCC(=O)O [ERS ODDA (C18), octadecanedioic acid]
